This is an account of results in ChEMBL document CHEMBL1141256, “Panaxadiol glycosides that induce neuronal differentiation in neurosphere stem cells” (2007).

SMILES strings stand for the structures. Calls of active or inactive are those of the source. The rule behind the calls is not given here.

Test [1] can be described thus: Neurogenesis in TUJ+MAP2+ mouse neural stem cells at 1 uM relative to control.
The nature of test [2]: Neurogenesis in GFAP+ mouse neural stem cells at 1 uM relative to control.
Test [3] can be described thus: Neurogenesis in TOPRO+ mouse neural stem cells at 1 uM relative to control.
Test [4] in a line: Neurogenesis in GFAP+ mouse neural stem cells at 8 uM after 24 hrs relative to control.
Test [5] can be described thus: Neurogenesis in TUJ+MAP2+ mouse neural stem cells at 8 uM for 24 hrs relative to control.
Test [6] is described as follows: Neurogenesis in TOPRO+ mouse neural stem cells at 8 uM after 24 hrs relative to control.
Test [7] has as its system Neural stem cell. In words: Neuronal differentiation in TUJ/MAP2+ EGF responsive mouse neural stem cells at 1 to 8 uM after 72 hrs.
Test [8] can be described thus: Neurogenesis of TUJ/MAP2+ mouse neural stem cells at 8 uM assessed as calcium influx relative to control.
The test system of test [9] is Neural stem cell. In words: Decrease in number of neurons in TUJ/MAP2+ mouse neural stem cells at 8 uM after 72 hrs.
Test [10] relates to Neural stem cell. Kind of test: Neurogenesis of TUJ/MAP2+ mouse neural stem cells at 8 uM afte 12, 24, 48 hrs.
Test [11] relates to Neural stem cell. In words: Decrease in number of neurons in TUJ/MAP2+ mouse neural stem cells at 15 uM.
The nature of test [12]: Neurogenesis of TUJ/MAP2+ mouse neural stem cells at 8 uM in presence of 5 uM nifedipine assessed as calcium influx relative to control.
Test [13] concerns Neural stem cell. Kind of test: Inhibition of calcium induced neurogenesis in mouse neural stem cells in presence of 10 uM nifedipine.
Test [14] relates to Neural stem cell. In words: Increase in calcium concentration in mouse neural stem cells at 5 uM assessed as […] ratio F350/F380. As to conditions: TDE = time-dependent effect.

In the case of `CC1=C(/C=C/C(C)=C/C=C/C(C)=C/C(=O)O)C(C)(C)CCC1` [TRETINOIN], the Activity in test [1] is listed as 16.5%; in test [2] it was 36.3%; in [3], 148%.

As to `CC(C)=CCC[C@](C)(O)[C@H]1CC[C@]2(C)[C@@H]1[C@H](O)C[C@@H]1[C@@]3(C)CC[C@H](O[C@@H]4O[C@H](CO)[C@@H](O)[C@H](O)[C@H]4O[C@@H]4O[C@H](CO)[C@@H](O)[C@H](O)[C@H]4O)C(C)(C)[C@@H]3CC[C@]12C`, the Activity stood at 35.9% in [4], 16.1% in test [5] and 140% in [6].

As to `C=C(CCC=C(C)C)[C@H]1CC[C@]2(C)[C@@H]1[C@H](O)C[C@@H]1[C@@]3(C)CC[C@H](O[C@@H]4O[C@H](CO)[C@@H](O)[C@H](O)[C@H]4O[C@@H]4O[C@H](CO)[C@@H](O)[C@H](O)[C@H]4O)C(C)(C)[C@@H]3CC[C@]12C` [GISENOSIDE RK1], the Activity is on record as 28.8% in [4], 28.4% in test [5] and 107% in [6].

As to `CC(C)=CC/C=C(\C)[C@H]1CC[C@]2(C)[C@@H]1[C@H](O)C[C@@H]1[C@@]3(C)CC[C@H](O[C@@H]4O[C@H](CO)[C@@H](O)[C@H](O)[C@H]4O[C@@H]4O[C@H](CO)[C@@H](O)[C@H](O)[C@H]4O)C(C)(C)[C@@H]3CC[C@]12C` [GINSENOSIDE RG5], the outcome in the test with Neural stem cell [7], in the test on Neural stem cell [9], in the test on Neural stem cell [10], in the test on Neural stem cell [11] and in the test with Neural stem cell [13] was Active. For the same compound, the Activity in test [8] is 29.6%; in test [4], 25.2%; in [5] it was 30.5%; in [6], 132%; in [12], 4%; in the test on Neural stem cell [14], “tde”.
